In US11479802B2, “Assays for screening activity of modulators of members of the hydroxy steroid (17-beta) dehydrogenase (HSD17B) family” (Regeneron Pharmaceuticals, Inc., priority 2017, dated 2022):
Where a name gives a salt, the structure may show the parent alone.

Target: T1, human HSD17B13 (Homo sapiens, UniProt Q7Z5P4)
T1 sequence (Q7Z5P4 20-300): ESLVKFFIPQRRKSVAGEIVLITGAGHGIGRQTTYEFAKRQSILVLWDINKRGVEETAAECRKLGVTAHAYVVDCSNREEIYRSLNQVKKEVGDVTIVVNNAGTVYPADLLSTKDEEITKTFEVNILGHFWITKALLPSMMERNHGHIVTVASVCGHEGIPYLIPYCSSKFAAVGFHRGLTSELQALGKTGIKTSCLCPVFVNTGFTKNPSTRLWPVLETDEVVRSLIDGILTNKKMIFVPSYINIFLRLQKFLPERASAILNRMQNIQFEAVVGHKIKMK
Assay: Substrate screening of steroid and bioactive lipid libraries against purified recombinant HSD17B13 (NADH-linked luciferase assay)
Assay type: biochemical
Conditions: for HSD17B13 Enzymatic Activity Relative Light Units: 500 μM NAD+, 100 ng enzyme, 3 hours at 23° C.; for HSD17B13 Enzymatic Activity Percent Estradiol Control: normalized to 50 μM estradiol after subtraction of 5% DMSO
In short: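 Recombinant human HSD17B13 (100 ng) incubated 3 h at 23° C in 0.2 M Tris-HCl pH 7.5 with 500 μM NAD+ and 5 μM bioactive lipid or 50 μM steroid (5% DMSO). NADH measured by luciferase luminescence after 1 h; values as percent of 50 μM estradiol control after 5% DMSO subtraction.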

[1] = Bioactive Lipid Library, 5 μM bioactive lipid (Estradiol Control 50 μM)
[2] = Bioactive Lipid Library, 5 μM bioactive lipid

| Structure (SMILES) | HSD17B13 Enzymatic Activity Relative Light Units [1] | HSD17B13 Enzymatic Activity Percent Estradiol Control [2] | HSD17B13 Enzymatic Activity Relative Light Units (Steroid Library, 50 μM steroid) | HSD17B13 Enzymatic Activity Percent Estradiol Control (Steroid Library, 50 μM steroid) |
| --- | --- | --- | --- | --- |
| O=P(O)(O)O[C@@H]1[C@H](O)[C@H](O)[C@@H](OP(=O)(O)O)[C@H](OP(=O)(O)O)[C@H]1O [D-myo-Inositol-1,4,5-triphosphate (potassium salt)] | 358400 RLU | 2.52% |  |  |
| O=P(O)(O)OC1[C@@H](O)[C@@H](O)C(OP(=O)(O)O)[C@H](O)[C@H]1O (stereo partly drawn) [D-myo-Inositol-1,4-diphosphate (sodium salt)] | 439280 RLU | 8.63% |  |  |
| O=P([O-])(O)O[C@@H]1C(O)[C@H](OP(=O)([O-])O)[C@H](O)C(O)[C@H]1O.[Na+].[Na+] (stereo partly drawn) [D-myo-Inositol-1,5-diphosphate (sodium salt)] | 443840 RLU | 8.97% |  |  |
| O=P(O)(O)O[C@@H]1[C@@H](OP(=O)(O)O)[C@@H](OP(=O)(O)O)[C@@H](O)[C@H](O)[C@H]1OP(=O)(O)O [D-myo-Inositol-2,3,4,5-tetraphosphate (ammonium salt)] | 372320 RLU | 3.57% |  |  |
| O=P(O)(O)O[C@@H]1C(O)[C@@H](OP(=O)(O)O)[C@@H](O)C(O)[C@H]1O (stereo partly drawn) [D-myo-Inositol-2,4-diphosphate (sodium salt)] | 306720 RLU | −1.38% |  |  |
| O=P(O)(O)OC1[C@@H](OP(=O)(O)O)[C@H](O)C(O)[C@@H](O)[C@H]1OP(=O)(O)O (stereo partly drawn) [D-myo-Inositol-3,4,5-triphosphate (sodium salt)] | 400520 RLU | 5.70% |  |  |
| O=P([O-])(O)O[C@@H]1[C@@H](O)[C@H](O)[C@H](O)[C@H](O)[C@H]1OP(=O)([O-])O.[Na+].[Na+] [D-myo-Inositol-4,5-diphosphate (sodium salt)] | 281680 RLU | −3.27% |  |  |
| O=P(O)(O)OC1[C@@H](O)[C@@H](O)C(O)[C@H](O)[C@H]1O (stereo partly drawn) [D-myo-Inositol-4-phosphate (ammonium salt)] | 408880 RLU | 6.33% |  |  |
| C[C@]12CC[C@H](O)CC1=CC[C@@H]1[C@@H]2CC[C@]2(C)C(=O)CC[C@@H]12 [Dehydroepiandrosterone] |  |  | 196240 RLU | 0.62% |
| CCC(=O)O[C@H]1CC[C@H]2[C@@H]3CC[C@H]4CC(=O)[C@H](C)C[C@]4(C)[C@H]3CC[C@]12C [Dromostanolone proprionate] |  |  | 212040 RLU | 0.90% |
| C[C@]12CC[C@H](O)C[C@@H]1CC[C@@H]1[C@@H]2CC[C@]2(C)C(=O)CC[C@@H]12 [Epiandrosterone] |  |  | 185800 RLU | 0.44% |
| C[C@]12CC[C@@H]3c4ccc(O)cc4CC[C@H]3[C@@H]1CCC2=O [Estrone] |  |  |  | 0.45% |
| CC(C)OC(=O)CCC/C=C\C[C@@H]1[C@@H](/C=C/[C@@H](O)COc2cccc(C(F)(F)F)c2)[C@H](O)C[C@@H]1O [Fluprostenol isopropyl ester] | 467040 RLU | 14.54% |  |  |
| C[C@]12CCC(=O)C(O)=C1CC[C@@H]1[C@@H]2CC[C@]2(C)C(=O)CC[C@@H]12 [Formestane] |  |  |  | 0.63% |
| C=CCc1ccc(O)c(-c2ccc(O)c(CC=C)c2)c1 [Honokiol] |  |  | 52920 RLU | −1.88% |
| CC(C)=CCC[C@]1(C)[C@@H](CC=C(C)C)C[C@@]2(CC=C(C)C)C(=O)[C@]1(C(=O)C(C)C)C(=O)C(CC=C(C)C)=C2O [Hyperforin] | 23920 RLU | −22.74% |  |  |
| O=C(O)CCC/C=C\C[C@@H]1[C@@H](/C=C/[C@@H](O)COc2ccc(I)cc2)[C@H]2CC[C@@H]1O2 [I-BOP] | 358960 RLU | 6.00% |  |  |
| CC1(C)[C@@H]2C[C@H](NS(=O)(=O)c3ccc(I)cc3)[C@@H](C/C=C\CCCC(=O)O)[C@H]1C2 [I-SAP] | 245520 RLU | −2.97% |  |  |
| CC#CCC(C)[C@H](O)/C=C/[C@@H]1[C@H]2C/C(=C/CCCC(=O)O)C[C@H]2C[C@H]1O (stereo partly drawn) [Iloprost] | 358880 RLU | 5.99% |  |  |
| CC(=O)N[C@@H](CSC(=O)[C@]1([C@@H](O)C(C)C)NC(=O)[C@H](C)[C@@H]1O)C(=O)O [Lactacystin] | 328520 RLU | 0.26% |  |  |
| CCCCCCCC\C=C/C=C/C=C/[C@@H]1O[C@H]1CCCC(=O)OC [Leukotriene A3 methyl ester] | 990560 RLU | 55.92% |  |  |
| CCCCC/C=C\C\C=C/C=C/C=C/[C@@H]1O[C@H]1CCCC(=O)OC [Leukotriene A4 methyl ester] | 463120 RLU | 14.23% |  |  |
| CCCCCCCC[C@H](O)/C=C/C=C\C=C\[C@H](O)CCCC(=O)O [Leukotriene B3] | 2077280 RLU | 141.82% |  |  |
| CCCCC/C=C\C[C@@H](O)/C=C/C=C/C=C\[C@@H](O)CCCC(=O)NCCO [Leukotriene B4 Ethanolamide] | 1948920 RLU | 131.68% |  |  |
| CCCCC/C=C\C[C@@H](O)/C=C/C=C/C=C\[C@@H](O)CCCC(=O)N(C)C [Leukotriene B4 dimethyl amide] | 1910040 RLU | 128.60% |  |  |
| CCCCC/C=C\C\C=C/C=C/C=C/[C@@H](SC[C@H](NC(=O)CC[C@@H](N)C(=O)O)C(=O)O)[C@@H](O)CCCC(=O)O [Leukotriene F4] | 400400 RLU | 9.27% |  |  |
| CCCCC[C@H](O)/C=C/C=C\C=C\C=C\[C@@H](O)[C@@H](O)CCCC(=O)O [Lipoxin A4] | 352680 RLU | 2.09% |  |  |
| CN(C)C(=O)CCSC(SCCC(=O)O)c1cccc(/C=C/c2ccc3ccc(Cl)cc3n2)c1 (stereo not drawn) [MK-571] | 281520 RLU | −0.12% |  |  |
